Results: patent US8530516B2, “Promoting cycling of ApoE4 isoform” (Board of Regents, The University of Texas System, priority 2009, dated 2013)

Legend:
ApoE receptors (Apoer2) = assay: recycling of ApoE receptors in the presence of ApoE4 / ApoE3; type: cell-based
NHE-3 = NHE-3 (Homo sapiens, UniProt P48764); settings: cited from earlier work
NHE5 = biological target: T1, NHE5 (Homo sapiens, UniProt Q14940); settings: cited from earlier work
T1 sequence (Q14940 1-896): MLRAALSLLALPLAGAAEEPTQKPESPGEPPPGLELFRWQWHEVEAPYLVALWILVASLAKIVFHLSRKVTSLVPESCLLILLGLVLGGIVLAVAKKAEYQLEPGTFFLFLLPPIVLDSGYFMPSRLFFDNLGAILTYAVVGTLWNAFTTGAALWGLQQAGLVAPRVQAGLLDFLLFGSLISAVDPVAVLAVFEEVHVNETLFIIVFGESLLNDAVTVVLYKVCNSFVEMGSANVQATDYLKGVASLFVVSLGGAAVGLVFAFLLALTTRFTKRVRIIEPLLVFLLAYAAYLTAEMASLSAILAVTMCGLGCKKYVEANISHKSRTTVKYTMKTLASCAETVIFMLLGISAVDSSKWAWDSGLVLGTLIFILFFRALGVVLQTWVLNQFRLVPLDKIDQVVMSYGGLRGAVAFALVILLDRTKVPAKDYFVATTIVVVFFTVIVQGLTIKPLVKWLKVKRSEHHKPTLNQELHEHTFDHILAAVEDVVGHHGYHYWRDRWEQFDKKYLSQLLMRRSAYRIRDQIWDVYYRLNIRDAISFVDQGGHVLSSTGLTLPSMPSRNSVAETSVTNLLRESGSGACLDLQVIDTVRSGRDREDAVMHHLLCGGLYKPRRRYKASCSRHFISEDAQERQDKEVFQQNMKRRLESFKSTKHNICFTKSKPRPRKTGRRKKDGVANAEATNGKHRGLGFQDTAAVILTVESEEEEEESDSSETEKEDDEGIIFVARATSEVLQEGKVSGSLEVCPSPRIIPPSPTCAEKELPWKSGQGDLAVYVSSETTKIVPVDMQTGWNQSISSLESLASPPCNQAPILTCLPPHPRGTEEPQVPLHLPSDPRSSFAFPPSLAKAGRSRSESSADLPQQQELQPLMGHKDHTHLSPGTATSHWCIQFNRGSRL

NHE-2 isoform = biological target: T2, NHE-2 isoform (Homo sapiens, UniProt Q9UBY0); settings: cited from earlier work
T2 sequence (Q9UBY0 1-812): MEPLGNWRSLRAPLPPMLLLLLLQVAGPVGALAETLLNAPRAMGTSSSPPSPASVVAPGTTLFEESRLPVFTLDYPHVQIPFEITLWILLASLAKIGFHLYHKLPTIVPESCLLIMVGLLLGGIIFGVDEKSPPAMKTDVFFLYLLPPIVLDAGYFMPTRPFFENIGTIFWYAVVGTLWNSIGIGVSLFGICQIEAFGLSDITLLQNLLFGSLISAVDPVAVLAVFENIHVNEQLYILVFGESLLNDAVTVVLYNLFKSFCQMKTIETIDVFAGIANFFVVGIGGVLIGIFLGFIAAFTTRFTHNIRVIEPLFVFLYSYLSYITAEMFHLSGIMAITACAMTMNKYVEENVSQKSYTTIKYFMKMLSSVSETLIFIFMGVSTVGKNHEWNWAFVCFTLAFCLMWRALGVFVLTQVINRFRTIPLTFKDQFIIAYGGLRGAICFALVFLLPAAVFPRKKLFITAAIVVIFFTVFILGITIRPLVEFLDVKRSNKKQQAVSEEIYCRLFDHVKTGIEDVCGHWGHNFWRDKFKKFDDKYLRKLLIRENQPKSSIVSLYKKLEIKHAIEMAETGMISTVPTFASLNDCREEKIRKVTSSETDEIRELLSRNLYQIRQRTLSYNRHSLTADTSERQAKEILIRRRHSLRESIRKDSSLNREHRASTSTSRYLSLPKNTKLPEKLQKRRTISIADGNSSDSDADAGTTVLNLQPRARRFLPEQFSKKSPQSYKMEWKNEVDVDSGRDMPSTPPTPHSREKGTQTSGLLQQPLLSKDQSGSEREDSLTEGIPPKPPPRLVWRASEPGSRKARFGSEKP

Chain of NHE-3 (P48764 26-834, species assumed): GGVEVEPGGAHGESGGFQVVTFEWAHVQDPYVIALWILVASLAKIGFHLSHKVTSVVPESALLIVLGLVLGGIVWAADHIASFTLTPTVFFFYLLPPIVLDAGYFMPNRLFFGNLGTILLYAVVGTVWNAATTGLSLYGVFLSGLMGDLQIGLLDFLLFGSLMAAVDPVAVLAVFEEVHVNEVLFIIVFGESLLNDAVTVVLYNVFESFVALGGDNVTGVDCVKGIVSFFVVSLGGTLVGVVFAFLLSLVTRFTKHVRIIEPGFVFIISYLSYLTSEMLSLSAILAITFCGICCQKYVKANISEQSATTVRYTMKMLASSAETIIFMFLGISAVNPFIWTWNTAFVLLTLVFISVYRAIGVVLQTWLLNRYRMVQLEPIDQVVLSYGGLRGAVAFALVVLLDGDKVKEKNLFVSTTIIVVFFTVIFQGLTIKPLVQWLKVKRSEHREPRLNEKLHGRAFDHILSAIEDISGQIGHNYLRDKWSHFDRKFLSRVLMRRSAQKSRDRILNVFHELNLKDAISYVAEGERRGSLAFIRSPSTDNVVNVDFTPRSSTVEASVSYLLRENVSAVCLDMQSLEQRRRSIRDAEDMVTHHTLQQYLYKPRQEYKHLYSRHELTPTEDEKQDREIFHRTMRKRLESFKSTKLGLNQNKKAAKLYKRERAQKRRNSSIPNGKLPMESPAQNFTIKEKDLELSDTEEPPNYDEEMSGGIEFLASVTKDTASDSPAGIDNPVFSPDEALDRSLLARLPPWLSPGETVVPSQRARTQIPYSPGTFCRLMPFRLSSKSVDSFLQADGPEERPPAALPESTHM

In the case of `COc1ccc(C2CNC(=O)C2)cc1OC1CCCC1` (stereo not shown) [rolipram], the “effect on altering the recycling properties of Apoer2” value (ApoE receptors (Apoer2); in the presence of ApoE3) is reported as “negligible effect” and the “recycling deficit induced by ApoE4” value (ApoE receptors (Apoer2); in the presence of ApoE4) is reported as “completely normalizes”.

In the case of `CC(C)NCC(O)c1ccc(O)c(O)c1` (stereo not shown) [isoproterenol], the ApoE receptor recycling (ApoE receptors (Apoer2); activation of beta-adrenergic receptors, in the presence or absence of IBMX) is reported as “restores normal ApoE receptor recycling”.

In the case of `CC(=Cc1cc(C)ccc1C=C(C)C(=O)NC(=N)N)C(=O)N=C(C)C.Cl.Cl` [S3226, 3-[2-(3-guanidino-2-methyl-3-oxo-propenyl)-5-methyl-phenyl]-N-isopropylidene-2-methyl-acrylamide dihydro-chloride], the “NHE-3 potency and specificity” value (NHE-3) is given as “relatively potent and specific”.

For `CN1Cc2c(Cl)cc(Cl)cc2C(c2ccc(S(=O)(=O)N=C(N)N)cc2)C1` (stereo not shown) [N-diaminomethylene-4-(6,8-dichloro-2-methyl-1,2,3,4-tetrahydroisoquinolin-4-yl)benzenesulfonamide], the NHE5 selectivity (NHE5) is listed as “NHE5 selective”.

For `COc1ccc2c3c([nH]c2c1)C(C)=NCC3` [hamaline], the NHE5 selectivity (NHE5) is given as “NHE5 selective”.

For `CS(=O)(=O)O.CS(=O)(=O)c1cc(C(=O)N=C(N)N)ccc1N1CCCCC1` [HOE 694], the NHE-2 isoform selectivity (NHE-2 isoform) is given as “relatively selective”.
